According to PubChem BioAssay (NCI):
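Results reflect a 48-hour exposure of cells in 96-well plates to compound at five concentrations. At the TGI there is no net growth.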

Tests used:
Test in all cases: NCI tumour cell line growth inhibition, 48 h
M14 melanoma = test system: M14 melanoma
HOP-18 NSCLC = test system: HOP-18 NSCLC
SK-MEL-5 melanoma = test system: SK-MEL-5 melanoma
MOLT-4 leukemia = test system: MOLT-4 leukemia
OVCAR-4 ovarian = test system: OVCAR-4 ovarian
SN12C renal = test system: SN12C renal
BT-549 breast = test system: BT-549 breast
MALME-3M melanoma = test system: MALME-3M melanoma
MDA-MB-231 breast = test system: MDA-MB-231 breast
LXFL 529 NSCLC = test system: LXFL 529 NSCLC
NCI-H522 lung = test system: NCI-H522 lung
DLD-1 colon = test system: DLD-1 colon
SR leukemia = test system: SR leukemia
SK-OV-3 ovarian = test system: SK-OV-3 ovarian
786-0 renal = test system: 786-0 renal
M19-MEL melanoma = test system: M19-MEL melanoma
HT29 colon = test system: HT29 colon
UACC-257 melanoma = test system: UACC-257 melanoma
SNB-19 CNS = test system: SNB-19 CNS
DMS 114 small cell lung = test system: DMS 114 small cell lung
SNB-75 CNS = test system: SNB-75 CNS
SF-539 CNS = test system: SF-539 CNS
RPMI-8226 leukemia = test system: RPMI-8226 leukemia
OVCAR-8 ovarian = test system: OVCAR-8 ovarian
CCRF-CEM leukemia = test system: CCRF-CEM leukemia
MDA-N = test system: MDA-N
SF-268 CNS = test system: SF-268 CNS
MDA-MB-435 = test system: MDA-MB-435
NCI-H460 lung = test system: NCI-H460 lung
SF-295 CNS = test system: SF-295 CNS
ACHN renal = test system: ACHN renal
UACC-62 melanoma = test system: UACC-62 melanoma
HOP-92 NSCLC = test system: HOP-92 NSCLC
OVCAR-5 ovarian = test system: OVCAR-5 ovarian
U251 CNS = test system: U251 CNS
EKVX NSCLC = test system: EKVX NSCLC
HCT-116 colon = test system: HCT-116 colon
MCF7 breast = test system: MCF7 breast
NCI/ADR-RES ovarian = test system: NCI/ADR-RES ovarian
COLO 205 colon = test system: COLO 205 colon
SK-MEL-2 melanoma = test system: SK-MEL-2 melanoma
TK-10 renal = test system: TK-10 renal
SK-MEL-28 melanoma = test system: SK-MEL-28 melanoma
KM12 colon = test system: KM12 colon
CAKI-1 renal = test system: CAKI-1 renal
DU-145 prostate = test system: DU-145 prostate
A549 NSCLC = test system: A549 NSCLC
K-562 leukemia = test system: K-562 leukemia
SW-620 colon = test system: SW-620 colon
OVCAR-3 ovarian = test system: OVCAR-3 ovarian
HOP-62 NSCLC = test system: HOP-62 NSCLC
IGROV1 ovarian = test system: IGROV1 ovarian
HL-60(TB) leukemia = test system: HL-60(TB) leukemia
RXF 393 renal = test system: RXF 393 renal
A498 renal = test system: A498 renal
KM20L2 colon = test system: KM20L2 colon
HCT-15 colon = test system: HCT-15 colon
UO-31 renal = test system: UO-31 renal
PC-3 prostate = test system: PC-3 prostate
T-47D breast = test system: T-47D breast
HCC-2998 colon = test system: HCC-2998 colon
SNB-78 CNS = test system: SNB-78 CNS
NCI-H23 lung = test system: NCI-H23 lung
NCI-H226 lung = test system: NCI-H226 lung
LOX IMVI melanoma = test system: LOX IMVI melanoma
DMS 273 small cell lung = test system: DMS 273 small cell lung
XF 498 CNS = test system: XF 498 CNS

Structure (SMILES): CN(C)C(=S)/N=c1\ssc(=S)n1Cc1ccccc1
- TGI (M14 melanoma): 13 µM
- TGI (HOP-18 NSCLC): > 100 µM
- TGI (SK-MEL-5 melanoma): 18.3 µM
- TGI (MOLT-4 leukemia): 29 µM
- TGI (OVCAR-4 ovarian): 30.2 µM
- TGI (SN12C renal): > 63.1 µM
- TGI (BT-549 breast): > 100 µM
- TGI (MALME-3M melanoma): 30.7 µM
- TGI (MDA-MB-231 breast): 42.6 µM
- TGI (LXFL 529 NSCLC): > 100 µM
- TGI (NCI-H522 lung): 0.617 µM
- TGI (DLD-1 colon): > 55.1 µM
- TGI (SR leukemia): 37.3 µM
- TGI (SK-OV-3 ovarian): 5.27 µM
- TGI (786-0 renal): 15.9 µM
- TGI (M19-MEL melanoma): > 100 µM
- TGI (HT29 colon): 11.7 µM
- TGI (UACC-257 melanoma): > 56.2 µM
- TGI (SNB-19 CNS): > 56.2 µM
- TGI (DMS 114 small cell lung): 0.456 µM
- TGI (SNB-75 CNS): 3.29 µM
- TGI (SF-539 CNS): 1.49 µM
- TGI (RPMI-8226 leukemia): 31.6 µM
- TGI (OVCAR-8 ovarian): 17.7 µM
- TGI (CCRF-CEM leukemia): 49.6 µM
- TGI (MDA-N): 1.21 µM
- TGI (SF-268 CNS): > 63.1 µM
- TGI (MDA-MB-435): 0.269 µM
- TGI (NCI-H460 lung): 22.6 µM
- TGI (SF-295 CNS): 6.29 µM
- TGI (ACHN renal): > 56.2 µM
- TGI (UACC-62 melanoma): 16.8 µM
- TGI (HOP-92 NSCLC): 7.63 µM
- TGI (OVCAR-5 ovarian): > 63.1 µM
- TGI (U251 CNS): 18.6 µM
- TGI (EKVX NSCLC): 57.6 µM
- TGI (HCT-116 colon): 29.6 µM
- TGI (MCF7 breast): > 46.4 µM
- TGI (NCI/ADR-RES ovarian): 0.401 µM
- TGI (COLO 205 colon): 1.95 µM
- TGI (SK-MEL-2 melanoma): 9.67 µM
- TGI (TK-10 renal): 47.1 µM
- TGI (SK-MEL-28 melanoma): > 63.1 µM
- TGI (KM12 colon): > 100 µM
- TGI (CAKI-1 renal): > 56.2 µM
- TGI (DU-145 prostate): 21.7 µM
- TGI (A549 NSCLC): 56 µM
- TGI (K-562 leukemia): 12.5 µM
- TGI (SW-620 colon): > 46.4 µM
- TGI (OVCAR-3 ovarian): 0.512 µM
- TGI (HOP-62 NSCLC): 20.7 µM
- TGI (IGROV1 ovarian): > 46.4 µM
- TGI (HL-60(TB) leukemia): 5.31 µM
- TGI (RXF 393 renal): 1 µM
- TGI (A498 renal): > 69.5 µM
- TGI (KM20L2 colon): 0.388 µM
- TGI (HCT-15 colon): > 49.6 µM
- TGI (UO-31 renal): 54 µM
- TGI (PC-3 prostate): 35.5 µM
- TGI (T-47D breast): > 31.6 µM
- TGI (HCC-2998 colon): > 27.7 µM
- TGI (SNB-78 CNS): > 100 µM
- TGI (NCI-H23 lung): 24.8 µM
- TGI (NCI-H226 lung): 28 µM
- TGI (LOX IMVI melanoma): > 63.1 µM

Structure (SMILES): CCOC1=C2C(=O)OC(=O)C2C2CCCCC2=C1 (stereo unspecified)
- TGI (M14 melanoma): > 100 µM
- TGI (SK-MEL-5 melanoma): > 100 µM
- TGI (MOLT-4 leukemia): > 100 µM
- TGI (OVCAR-4 ovarian): > 100 µM
- TGI (SN12C renal): > 100 µM
- TGI (MALME-3M melanoma): > 100 µM
- TGI (LXFL 529 NSCLC): > 100 µM
- TGI (NCI-H522 lung): > 100 µM
- TGI (DLD-1 colon): > 100 µM
- TGI (SK-OV-3 ovarian): > 100 µM
- TGI (786-0 renal): > 100 µM
- TGI (M19-MEL melanoma): > 100 µM
- TGI (HT29 colon): > 100 µM
- TGI (UACC-257 melanoma): > 100 µM
- TGI (SNB-19 CNS): > 100 µM
- TGI (DMS 114 small cell lung): > 100 µM
- TGI (SNB-75 CNS): > 100 µM
- TGI (SF-539 CNS): > 100 µM
- TGI (RPMI-8226 leukemia): > 100 µM
- TGI (OVCAR-8 ovarian): > 100 µM
- TGI (CCRF-CEM leukemia): > 100 µM
- TGI (SF-268 CNS): > 100 µM
- TGI (NCI-H460 lung): > 100 µM
- TGI (DMS 273 small cell lung): > 100 µM
- TGI (SF-295 CNS): > 100 µM
- TGI (UACC-62 melanoma): > 100 µM
- TGI (HOP-92 NSCLC): > 100 µM
- TGI (U251 CNS): > 100 µM
- TGI (EKVX NSCLC): > 100 µM
- TGI (HCT-116 colon): > 100 µM
- TGI (COLO 205 colon): > 100 µM
- TGI (SK-MEL-2 melanoma): > 100 µM
- TGI (TK-10 renal): > 100 µM
- TGI (SK-MEL-28 melanoma): > 100 µM
- TGI (KM12 colon): > 100 µM
- TGI (CAKI-1 renal): > 100 µM
- TGI (A549 NSCLC): > 100 µM
- TGI (K-562 leukemia): > 100 µM
- TGI (SW-620 colon): > 100 µM
- TGI (OVCAR-3 ovarian): > 100 µM
- TGI (HOP-62 NSCLC): > 100 µM
- TGI (IGROV1 ovarian): > 100 µM
- TGI (HL-60(TB) leukemia): > 100 µM
- TGI (RXF 393 renal): > 100 µM
- TGI (HCT-15 colon): > 100 µM
- TGI (UO-31 renal): > 100 µM
- TGI (XF 498 CNS): > 100 µM
- TGI (HCC-2998 colon): > 100 µM
- TGI (SNB-78 CNS): > 100 µM
- TGI (NCI-H23 lung): > 100 µM
- TGI (LOX IMVI melanoma): > 100 µM
